The results in this text go back to patent US8349878B2 (Laboratorios del Dr. Esteve, S.A., priority 2006, dated 2013).

This experiment addresses T1, σ1-receptor (Cavia porcellus, UniProt Q60492).
T1 construct: guinea pig brains were homogenized; from tissue; host or cells: guinea pig brain membranes
The experiment can be described thus: Sigma-1 receptor binding assay, [3H](+)-pentazocine displacement in guinea pig brain membranes. The following applies: for inhibition at 0.01 µM: read-out: Sigma-1 Inhibition percent (0.01 μM); for inhibition at 0.1 µM: read-out: Sigma-1 Inhibition percent (0.1 μM). As to the method:
The following protocol was followed:
In brief, guinea pig brains were homogenized in 10 vols. (w/v) of Tris-HCl 50 mM 0.32 M sucrose, pH 7.4, with a Kinematica Polytron PT 3000 at 15000 r.p.m. for 30 s. The homogenate was centrifuged at 1000 g for 10 min at 4° C. and the supernatants collected and centrifuged again at 48000 g for 15 min at 4° C. The pellet was resuspended in 10 volumes of Tris-HCl buffer (50 mM, pH 7.4), incubated at 37° C. for 30 min, and centrifuged at 48000 g for 20 min at 4° C. Following this, the pellet was resuspended in fresh Tris-HCl buffer (50 mM, pH 7.4) and stored on ice until use.
Each assay tube contained 10 μL of [^3H](+)-pentazocine (final concentration of 0.5 nM), 900 μL of the tissue suspension to a final assay volume of 1 mL and a final tissue concentration of approximately 30 mg tissue net weight/mL. Non-specific binding was defined by addition of a final concentration of 1 μM haloperidol. […] Filters were then washed with four times with 4 mL of cold Tris-HCl buffer (50 mM, pH 7.4). Following addition of scintillation cocktail, the samples were allowed to equilibrate overnight.

The mark [1] stands for this setting: [3H](+)-pentazocine 0.5 nM, guinea pig brain membranes, read-out: Sigma-1 Ki (nm) Displ. 10^−7 M (10^−8 M).
Where [2] appears, read: compound at 0.01 μM, [3H](+)-pentazocine 0.5 nM, guinea pig brain membranes.
Setting [3] is: compound at 0.1 μM, [3H](+)-pentazocine 0.5 nM, guinea pig brain membranes.

A word on the Ki: it is a measure of affinity in units of concentration, obtained from inhibition or displacement. One may read the inhibition as the drop in the measured response relative to a control, in per cent.

Counter-ions that a name gives are not always drawn. Like-named read-outs stand apart in the source and are kept apart here.

T1 sequence (Q60492 whole entry): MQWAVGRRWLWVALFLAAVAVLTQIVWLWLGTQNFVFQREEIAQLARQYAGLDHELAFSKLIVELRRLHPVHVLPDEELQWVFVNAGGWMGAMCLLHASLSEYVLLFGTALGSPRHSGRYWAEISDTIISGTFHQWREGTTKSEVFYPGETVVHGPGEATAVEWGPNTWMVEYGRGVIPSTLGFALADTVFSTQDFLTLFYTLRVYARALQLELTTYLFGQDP

As for `Cc1nc(SCCN2CCOCC2)nn1-c1ccc(Cl)c(Cl)c1` [compound 1, oxalate], the Ki under setting [1] is 1.1 nM. Besides, the inhibition at 0.01 µM under setting [2] stood at 102%. The inhibition at 0.1 µM under setting [3] was determined as 107%.

As for `Cc1nc(SCCN2CCCCC2)nn1-c1ccc(Cl)c(Cl)c1` [compound 2, 1-[2-(3,4-dichlorophenyl)-5-methyl-1H-1.2.4-triazole-3-yl-thioethyl]piperidine oxalate], the Ki under setting [1] was found to be 0.8 nM. For the same molecule, the inhibition at 0.01 µM under setting [2] amounted to 105%. The inhibition at 0.1 µM under setting [3] worked out at 109%.

On to `Cc1nc(SCCN2CCCC2)nn1-c1ccc(Cl)c(Cl)c1` [compound 3, oxalate], for which the Ki under setting [1] stood at 1.4 nM. The inhibition at 0.01 µM under setting [2] is 103%. Moreover, the inhibition at 0.1 µM under setting [3] worked out at 106%.

In the case of `Cc1nc(SCCN(C(C)C)C(C)C)nn1-c1ccc(Cl)c(Cl)c1` [compound 4, oxalate], affinity was put at a Ki of 1.1 nM, the inhibition at 0.01 µM was determined as 105% and the inhibition at 0.1 µM came to 109%.

Regarding `CCN(CC)CCSc1nc(C)n(-c2ccc(Cl)c(Cl)c2)n1` [compound 5, 2-(1-(3,4-dichlorophenyl)-5-methyl-1H-1,2,4-triazole-3-yl-thio]-N,N-diethyl ethanamine oxalate], under setting [1], the Ki is 1.1 nM. For the same molecule, the inhibition at 0.01 µM under setting [2] was determined as 104%. Also, the inhibition at 0.1 µM under setting [3] is 109%.

As for `Cc1nc(SCCN2CCCCCC2)nn1-c1ccc(Cl)c(Cl)c1` [compound 6, 1-[2-(1-(3,4-dichlorophenyl)-5-methyl-1H-1,2,4-triazol-3-yl-thio)ethyl]azepane oxalate], under setting [2], the inhibition at 0.01 µM worked out at 90.6%. The inhibition at 0.1 µM under setting [3] was 99.2%.

For `Cc1nc(SCCCN2CCOCC2)nn1-c1ccc(Cl)c(Cl)c1` [compound 7, 4-[3-(1-(3,4-Dichlorophenyl)-5-methyl-1H-1,2,4-triazol-3-ylthio)propyl]morpholine oxalate], under setting [1], the Ki stood at 8.2 nM. Further, the inhibition at 0.01 µM under setting [2] was found to be 67.8%. Also, the inhibition at 0.1 µM under setting [3] worked out at 85.5%.

On to `Cc1nc(SCCCN2CCCC2)nn1-c1ccc(Cl)c(Cl)c1` [compound 8, 1-[3-(1-(3,4-dichlorophenyl)-5-methyl-1H-1,2,4-triazol-3-yl-thio)propyl]-4-pyrrolidine oxalate], for which, under setting [1], the Ki came to 2.1 nM. Further, the inhibition at 0.01 µM under setting [2] was determined as 57.4%. For the same molecule, the inhibition at 0.1 µM under setting [3] amounted to 82.5%.

For `Cc1nc(SCCCN2CCC(c3ccccc3)CC2)nn1-c1ccc(Cl)c(Cl)c1` [compound 9, 1-[3-(1-(3,4-dichlorophenyl)-5-methyl-1H-1,2,4-triazol-3-ylthio)propyl]-4-phenylpiperidine oxalate], under setting [1], the Ki was determined as 9 nM. The inhibition at 0.01 µM under setting [2] worked out at 74.2%. Further, under setting [3], the inhibition at 0.1 µM is 89%.

Take `Cc1nc(SCCCCN2CCC(c3ccccc3)CC2)nn1-c1ccc(Cl)c(Cl)c1` [compound 10, 1-[4-(1-(3,4-dichlorophenyl)-5-methyl-1H-1,2,4-triazol-3-yl-thio)butyl]-4-phenylpiperidine oxalate]: the inhibition at 0.01 µM under setting [2] stood at 27.3%. For the same molecule, the inhibition at 0.1 µM under setting [3] stood at 88.1%.

Regarding `Cc1nc(SCCCCN2CCOCC2)nn1-c1ccc(Cl)c(Cl)c1` [compound 11, 4-[4-(1-(3,4-dichlorophenyl)-5-methyl-1H-1,2,4-triazol-3-yl-thio)butyl]morpholine oxalate], the inhibition at 0.01 µM under setting [2] is 14.5%. For the same molecule, under setting [3], the inhibition at 0.1 µM stood at 66.9%.

Turning to `Cc1nc(SCCCCCN2CCCCC2)nn1-c1ccc(Cl)c(Cl)c1` [compound 12, 1-[5-(1-(3,4-dichlorophenyl)-5-methyl-1H-1,2,4-triazol-3-ylthio)pentyl]piperidine oxalate], the inhibition at 0.01 µM under setting [2] is 52.1%. Under setting [3], the inhibition at 0.1 µM came to 82.8%.

As to `Cc1nc(SCCCCCN2CCOCC2)nn1-c1ccc(Cl)c(Cl)c1` [compound 13, 4-[5-(1-(3,4-Dichlorophenyl)-5-methyl-1H-1,2,4-triazol-3-ylthio)pentyl]morpholine oxalate], the inhibition at 0.01 µM under setting [2] worked out at 4.3%. Further, the inhibition at 0.1 µM under setting [3] was 58.2%.

For `Cc1nc(SCCCCCN2CCCC2)nn1-c1ccc(Cl)c(Cl)c1` [compound 14, 1-[5-(1-(3,4-dichlorophenyl)-5-methyl-1H-1,2,4-triazol-3-ylthio)pentyl]pyrrolidine oxalate], under setting [2], the inhibition at 0.01 µM is 6%. Moreover, the inhibition at 0.1 µM under setting [3] came to 52.5%.

`Cc1nc([S+]([O-])CCN2CCCC2)nn1-c1ccc(Cl)c(Cl)c1` (stereo not shown) [compound 15, 1-[2-(1-(3,4-dichlorophenyl)-5-methyl-1H-1,2,4-triazol-3-yl-sulfinyl)ethyl]pyrrolidine]: the Ki under setting [1] was found to be 7 nM. In addition, the inhibition at 0.01 µM under setting [2] was 47.2%. Also, under setting [3], the inhibition at 0.1 µM is 88.9%.

Regarding `Cc1nc([S+]([O-])CCN2CCOCC2)nn1-c1ccc(Cl)c(Cl)c1` (stereo not shown) [compound 16, 4-[2-(1-(3,4-dichlorophenyl)-5-methyl-1H-1,2,4-triazol-3-yl-sulfinyl)-ethyl]-morpholine], under setting [2], the inhibition at 0.01 µM was found to be 28.6%. Under setting [3], the inhibition at 0.1 µM was found to be 42%.

With `Cc1nc([S+]([O-])CCN(C(C)C)C(C)C)nn1-c1ccc(Cl)c(Cl)c1` (stereo not shown) [compound 17], the inhibition constant (Ki) came out at 4 nM, the inhibition at 0.01 µM stood at 62.3% and the inhibition at 0.1 µM was determined as 93.9%.

Regarding `Cc1nc([S+]([O-])CCCCN2CCC(c3ccccc3)CC2)nn1-c1ccc(Cl)c(Cl)c1` (stereo not shown) [compound 18, 1-[4-(1-(3,4-Dichlorophenyl)-5-methyl-1H-1,2,4-triazol-3-ylsulfinyl)butyl]-4-phenylpiperidine], under setting [2], the inhibition at 0.01 µM is -39.5%. Under setting [3], the inhibition at 0.1 µM turned out to be 37.2%.

Consider `Cc1nc(S(=O)(=O)CCN2CCCC2)nn1-c1ccc(Cl)c(Cl)c1` [compound 19], for which the Ki under setting [1] worked out at 2.2 nM. Also, the inhibition at 0.01 µM under setting [2] turned out to be 71.8%. Further, under setting [3], the inhibition at 0.1 µM was 96.4%.

As to `CCN(CC)CCS(=O)(=O)c1nc(C)n(-c2ccc(Cl)c(Cl)c2)n1` [compound 20, 2-[1-(3,4-Dichlorophenyl)-5-methyl-1H-1,2,4-triazol-3-ylsulfonyl]-N,N-diethylethanamine], the Ki under setting [1] stood at 16.7 nM. For the same molecule, the inhibition at 0.01 µM under setting [2] was 51.2%. In addition, under setting [3], the inhibition at 0.1 µM was determined as 82.1%.

As for `Cc1nc(S(=O)(=O)CCCCN2CCOCC2)nn1-c1ccc(Cl)c(Cl)c1` [compound 21, 4-[4-(1-(3,4-Dichlorophenyl)-5-methyl-1H-1,2,4-triazol-3-yl-sulfonyl)-butyl]morpholine], the inhibition at 0.01 µM under setting [2] came out at 8.3%. For the same molecule, under setting [3], the inhibition at 0.1 µM was found to be 20.5%.

In the case of `Cc1nc(OCCN2CCCCC2)nn1-c1ccc(Cl)c(Cl)c1` [compound 22], under setting [1], the Ki turned out to be 3.1 ± 1.6 nM. In addition, the inhibition at 0.01 µM under setting [2] was 54.3%. Besides, under setting [3], the inhibition at 0.1 µM was 94.8%.

With `CCN(CC)CCOc1nc(C)n(-c2ccc(Cl)c(Cl)c2)n1` [compound 23, 2-[1-(3,4-Dichlorophenyl)-5-methyl-1H-1,2,4-triazol-3-yloxy]-N,N-diethylethanamine], the inhibition at 0.01 µM under setting [2] amounted to 32.2%. In addition, the inhibition at 0.1 µM under setting [3] is 85%.

`Cc1nc(OCCN2CCCC2)nn1-c1ccc(Cl)c(Cl)c1` [compound 24, 1-[2-(1-(3,4-Dichlorophenyl)-5-methyl-1H-1,2,4-triazol-3-yloxy)ethyl]pyrrolidine]: the inhibition at 0.01 µM under setting [2] is 39.5%. In addition, the inhibition at 0.1 µM under setting [3] turned out to be 91.8%.

With `Cc1nc(OCCN2CCOCC2)nn1-c1ccc(Cl)c(Cl)c1` [compound 25, 4-[2-(1-(3,4-Dichlorophenyl)-5-methyl-1H-1,2,4-triazol-3-yloxy)ethyl]morpholine oxalate], under setting [2], the inhibition at 0.01 µM was found to be 33.8%. The inhibition at 0.1 µM under setting [3] was determined as 83.8%.

In the case of `CCN(CC)CCOc1nc(C)n(-c2ccccc2)n1` [compound 26, 2-(5-methyl-1-phenyl-1H-1,2,4-triazol-3-yloxy)-N,N-diethyl ethanamine], under setting [2], the inhibition at 0.01 µM came out at 7.3%. Besides, the inhibition at 0.1 µM under setting [3] turned out to be 15.2%.

`Cc1nc(OCCN2CCCC2)nn1-c1ccccc1` [compound 27, 1-[2-(5-methyl-1-phenyl-1H-1,2,4-triazol-3-yloxy)ethyl]pyrrolidine]: the inhibition at 0.01 µM under setting [2] was 8.1%. Under setting [3], the inhibition at 0.1 µM was 30.4%.

Regarding `Cc1nc(OCCN2CCOCC2)nn1-c1ccccc1` [compound 28, 4-[2-(5-methyl-1-phenyl-1H-1,2,4-triazol-3-yloxy)ethyl]morpholine], the inhibition at 0.01 µM under setting [2] was -20.9%. In addition, the inhibition at 0.1 µM under setting [3] is -3.4%.

As to `Cc1nc(OCCN2CCCCC2)nn1-c1ccccc1` [compound 29, 1-[2-(5-methyl-1-phenyl-1H-1,2,4-triazol-3-yloxy)ethyl]piperidine], under setting [2], the inhibition at 0.01 µM worked out at 5.8%. Further, the inhibition at 0.1 µM under setting [3] was found to be 46.1%.

`Cc1nc(OCCCCN2CCOCC2)nn1-c1ccccc1` [compound 30, 4-[4-(5-methyl-1-phenyl-1H-1,2,4-triazol-3-yloxy)butyl]morpholine]: the inhibition at 0.01 µM under setting [2] was -15.1%. In addition, the inhibition at 0.1 µM under setting [3] came to 18.3%.
